Measurements published in US20080234318A1, “Chemical Compounds” (priority 2005, published 2008).

Tested on: HIV-1
Assay: HOS HIV-1 infectivity assay
Format: cell-based
Details: Human immunodeficiency virus 1, BAL / IIIB, HOS cells expressing hCXCR4/hCCR5/hCD4/pHIV-LTR-luciferase, virus strain (Ba-L or IIIB) not given, read-out: Activity Level
Protocol: Compounds were profiled against two HIV-1 viruses, the M-tropic (CCR5 utilizing) Ba-L strain and the T-tropic (CXCR4 utilizing) IIIB strain. Both viruses were propagated in human peripheral blood lymphocytes. Compounds were tested for there ability to block infection of the HOS cell line (expressing hCXCR4/hCCR5/hCD4/pHIV-LTR-luciferase) by either HIV-1 Ba-L or HIV-1 IIIB. Compound cytotoxicity was also examined in the absence of virus addition.
HOS cells (expressing hCXCR4/hCCR5/hCD4/pHIV-LTR-luciferase) were harvested and diluted in Dulbeccos modified Eagles media supplemented with 2% FCS and non-essential amino acid to a concentration of 60,000 cells/ml. The cells were plated into 96-well plates (100 ul per well) and the plates were placed in a tissue culture incubator (37° C.; 5% CO2/95% air) for a period of 24h.
Subsequently, 50 ul of the desired drug solution (4 times the final concentration) was added to each well and the plates were returned to the tissue culture incubator (37° C.; 5% CO2/95% air) for 1h. Following this incubation 50 ul of diluted virus was added to each well (approximately 2 million RLU per well of virus). The plates were returned to the tissue culture incubator (37° C.; 5% CO2/95% air) and were incubated for a further 96h.
Following this incubation the endpoint for the virally infected cultures was quantified following addition of Steady-Glo Luciferase assay system reagent (Promega, Madison, Wis.). Cell viability or non-infected cultures was measured using a CellTiter-Glo luminescent cell viability assay system (Promega, Madison, Wis.). All luminescent readouts are performed on a Topcount luminescence detector (Packard, Meridien, Conn.).

Row | Compound | IC50 [nM]
1 | CN1CCN(c2cccc3nc(CN(C)[C@H]4CCCc5cccnc54)c(CNC(=O)OCc4ccccc4)n23)CC1 [Example 33, Phenylmethyl {[5-(4-methyl-1-piperazinyl)-2-({methyl[(8S)-5,6,7,8-tetrahydro-8-quinolinyl]amino}methyl)imidazor[1,2-a]pyridin-3-yl]methyl}carbamate] | < 100
2 | CN1CCN(c2cccc3nc(CN(C)[C@H]4CCCc5cccnc54)c(CNS(C)(=O)=O)n23)CC1 [Example 34, N-{[5-(4-Methyl-1-piperazinyl)-2-({methyl[(8S)-5,6,7,8-tetrahydro-8-quinolinyl]amino}methyl)imidazo[1,2-a]pyridine-3-yl]methyl}methanesulfonamide] | < 100
3 | CCS(=O)(=O)NCc1c(CN(C)[C@H]2CCCc3cccnc32)nc2cccc(N3CCN(C)CC3)n12 [Example 35, N-{[5-(4-Methyl-1-piperazinyl)-2-({methyl[(8S)-5,6,7,8-tetrahydro-8-quinolinyl]amino}methyl)imidazo[1,2-a]pyridin-3-yl]methyl}ethanesulfonamide] | < 100
4 | CC(C)S(=O)(=O)NCc1c(CN(C)[C@H]2CCCc3cccnc32)nc2cccc(N3CCN(C)CC3)n12 [Example 36, N-{[5-(4-Methyl-1-piperazinyl)-2-({methyl[(8S)-5,6,7,8-tetrahydro-8-quinolinyl]amino}methyl)imidazo[1,2-a]pyridin-3-yl]methyl}-2-propanesulfonamide] | < 100
5 | CN1CCN(c2cccc3nc(CN(C)[C@H]4CCCc5cccnc54)c(CNS(=O)(=O)c4ccccc4)n23)CC1 [Example 37, N-{[5-(4-Methyl-1-piperazinyl)-2-({methyl[(8S)-5,6,7,8-tetrahydro-8-quinolinyl]amino}methyl)imidazo[1,2-a]pyridin-3-yl]methyl}benzenesulfonamide] | < 100
6 | CN1CCN(c2cccc3nc(CN(C)[C@H]4CCCc5cccnc54)c(CNS(=O)(=O)Cc4ccccc4)n23)CC1 [Example 38, N-{[5-(4-Methyl-1-piperazinyl)-2-({methyl[(8S)-5,6,7,8-tetrahydro-8-quinolinyl]amino}methyl)imidazo[1,2-a]pyridin-3-yl]methyl}-1-phenylmethanesulfonamide] | < 100
7 | CCNC(=O)NCc1c(CN(C)[C@H]2CCCc3cccnc32)nc2cccc(N3CCN(C)CC3)n12 [Example 39, N-Ethyl-N′-{[5-(4-methyl-1-piperazinyl)-2-({methyl[(8S)-5,6,7,8-tetrahydro-8-quinolinyl]amino}methyl)imidazo[1,2-a]pyridin-3-yl]methyl}urea] | < 100
8 | CC(C)NC(=O)NCc1c(CN(C)[C@H]2CCCc3cccnc32)nc2cccc(N3CCN(C)CC3)n12 [Example 40, N-(1-Methylethyl)-N′-{[5-(4-methyl-1-piperazinyl)-2-({methyl[(8S)-5,6,7,8-tetrahydro-8-quinolinyl]amino}methyl)imidazo[1,2-a]pyridin-3-yl]methyl}urea] | < 100
9 | CN1CCN(c2cccc3nc(CN(C)[C@H]4CCCc5cccnc54)c(CNC(=O)Nc4ccccc4)n23)CC1 [Example 41, N-{[5-(4-Methyl-1-piperazinyl)-2-({methyl[(8S)-5,6,7,8-tetrahydro-8-quinolinyl]amino}methyl)imidazo[1,2-a]pyridin-3-yl]methyl}-N′-phenylurea] | < 100
10 | CN1CCN(c2cccc3nc(CN(C)[C@H]4CCCc5cccnc54)c(CNC(=O)Nc4ccc(N(C)C)cc4)n23)CC1 [Example 42, N-[4-(Dimethylamino)phenyl]-N′-{[5-(4-methyl-1-piperazinyl)-2-({methyl[(8S)-5,6,7,8-tetrahydro-8-quinolinyl]amino}methyl)imidazo[1,2-a]pyridin-3-yl]methyl}urea] | < 100
11 | COc1ccc(NC(=O)NCc2c(CN(C)[C@H]3CCCc4cccnc43)nc3cccc(N4CCN(C)CC4)n23)cc1 [Example 43, N-[4-(Methyloxy)phenyl]-N′-{[5-(4-methyl-1-piperazinyl)-2-({methyl[(8S)-5,6,7,8-tetrahydro-8-quinolinyl]amino}methyl)imidazo[1,2-a]pyridin-3-yl]methyl}urea] | < 100
12 | CN1CCN(c2cccc3nc(CN(C)[C@H]4CCCc5cccnc54)c(CNC(N)=O)n23)CC1 [Example 44, N-{[5-(4-Methyl-1-piperazinyl)-2-({methyl[(8S)-5,6,7,8-tetrahydro-8-quinolinyl]amino}methyl)imidazo[1,2-a]pyridin-3-yl]methyl}urea] | < 100
